Among the data in PubChem BioAssay (NCI) are GI50 and TGI values, retold here.

Some test systems named below: CCRF-CEM leukemia; SK-OV-3 ovarian; OVCAR-4 ovarian; UACC-257 melanoma; SN12C renal; A498 renal; EKVX NSCLC; SF-268 CNS; MDA-MB-231 breast; T-47D breast.
Assay in all cases: NCI tumour cell line growth inhibition, 48 h

SMILES strings stand for the structures.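 Dose response: 5 concentrations. Exposure: 48 h. Format: 96-well plates. Endpoint: linear interpolation; highest concentration if not reached. Abbreviation: GI50, concentration required for 50% inhibition of growth. TGI is the concentration that stops growth completely.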 Where only a bound is given, the exact number is not on record here.

As to `Cn1cc(-c2ccc3ncc(-c4ccc(CC(=O)Nc5cc(C(C)(C)C)nn5C)cc4)cc3c2)cn1`, the GI50 with CCRF-CEM leukemia is 0.81 µM; with SK-OV-3 ovarian it was 0.934 µM; with OVCAR-4 ovarian, 0.687 µM; in the assay on UACC-257 melanoma, 1.45 µM; with SN12C renal it was 0.854 µM; in the assay on A498 renal, 0.422 µM. In addition, the GI50 was 1.88 µM in the assay with EKVX NSCLC, 1.45 µM with SF-268 CNS, 2.37 µM with MDA-MB-231 breast and 0.617 µM in the assay on T-47D breast. The TGI in the assay with CCRF-CEM leukemia is 16.6 µM; with SK-OV-3 ovarian, greater than 20 µM; in the assay with OVCAR-4 ovarian, 5.03 µM; with UACC-257 melanoma, greater than 20 µM; with SN12C renal, greater than 20 µM; with A498 renal it was 1.66 µM. For the same molecule, the TGI in the assay with EKVX NSCLC was greater than 20 µM; in the assay with SF-268 CNS, greater than 20 µM; in the assay with MDA-MB-231 breast it was greater than 20 µM; in the assay with T-47D breast it was 5.91 µM.

As to `N=C(N)n1cc(/C=N/N=C(N)N)cn1`, the TGI with CCRF-CEM leukemia, in the assay on SK-OV-3 ovarian, with OVCAR-4 ovarian, in the assay on UACC-257 melanoma, with SN12C renal and with A498 renal was greater than 100 µM throughout. Moreover, the TGI in the assay on EKVX NSCLC, with SF-268 CNS, with MDA-MB-231 breast and in the assay with T-47D breast was greater than 100 µM in each case.

Regarding `CN(C)CCCOc1ccc(NC2=C(Cl)C(=O)C(Nc3ccc(OCCCN(C)C)cc3)=C(Cl)C2=O)cc1`, the GI50 in the assay on CCRF-CEM leukemia was 0.272 µM; with SK-OV-3 ovarian, 1.82 µM; with OVCAR-4 ovarian, 0.14 µM; in the assay on UACC-257 melanoma, 0.793 µM; with SN12C renal, 0.548 µM; in the assay with A498 renal, 1.66 µM. Besides, the GI50 is 0.582 µM with EKVX NSCLC, 1.56 µM in the assay on SF-268 CNS, 0.656 µM in the assay with MDA-MB-231 breast and 1.96 µM in the assay with T-47D breast. Also, the TGI amounted to 2.95 µM in the assay on CCRF-CEM leukemia; 3.34 µM in the assay on SK-OV-3 ovarian; 0.27 µM with OVCAR-4 ovarian; 2.29 µM with UACC-257 melanoma; 1.05 µM in the assay with SN12C renal; 3.32 µM with A498 renal. Besides, the TGI is 1.26 µM in the assay on EKVX NSCLC, 3.17 µM with SF-268 CNS, 1.49 µM with MDA-MB-231 breast and 4.96 µM in the assay with T-47D breast.

Consider `CN(C)CCNC(=O)Nc1ccc(N(C)c2ccnc(Nc3ccc(CS(C)(=O)=O)cc3)n2)cc1`, for which the GI50 with CCRF-CEM leukemia is 16.5 µM; in the assay on SK-OV-3 ovarian, greater than 25 µM; in the assay with OVCAR-4 ovarian it was greater than 25 µM; in the assay on UACC-257 melanoma it was greater than 25 µM; in the assay with SN12C renal it was greater than 25 µM; in the assay with A498 renal it was greater than 25 µM. The GI50 in the assay with EKVX NSCLC, in the assay on SF-268 CNS, in the assay with MDA-MB-231 breast and in the assay with T-47D breast was greater than 25 µM in each case. For the same molecule, the TGI with CCRF-CEM leukemia, with SK-OV-3 ovarian, in the assay on OVCAR-4 ovarian, with UACC-257 melanoma, in the assay on SN12C renal and with A498 renal was greater than 25 µM each time. Further, the TGI in the assay with EKVX NSCLC, with SF-268 CNS, in the assay with MDA-MB-231 breast and in the assay on T-47D breast was greater than 25 µM each time.

With `OCCNc1nc2ccccc2c2[nH]c3ccccc3c12`, the GI50 in the assay on CCRF-CEM leukemia is 0.654 µM; with SK-OV-3 ovarian, 0.329 µM; in the assay with OVCAR-4 ovarian it was 1.06 µM; in the assay on UACC-257 melanoma, 0.944 µM; in the assay on SN12C renal it was 0.34 µM; in the assay with A498 renal, 0.36 µM. Further, the GI50 with EKVX NSCLC is 2.14 µM; in the assay with SF-268 CNS it was 0.519 µM; in the assay with MDA-MB-231 breast, 0.611 µM; in the assay with T-47D breast it was 0.366 µM. For the same molecule, the TGI in the assay with CCRF-CEM leukemia was 10.7 µM; in the assay with SK-OV-3 ovarian, 2.07 µM; in the assay with OVCAR-4 ovarian, 4.59 µM; in the assay with UACC-257 melanoma it was 2.33 µM; with SN12C renal, 11.4 µM; in the assay on A498 renal, 1.72 µM. Besides, the TGI with EKVX NSCLC is 15.5 µM; in the assay on SF-268 CNS, 3.42 µM; in the assay with MDA-MB-231 breast, 3.63 µM; in the assay on T-47D breast, 2.29 µM.

For `Nc1ncnc2c1c(-c1ccc(Oc3ccccc3)cc1)nn2CC1SSCC1O` (stereo not given), the GI50 with CCRF-CEM leukemia is 0.138 µM; in the assay on SK-OV-3 ovarian, 1.35 µM; in the assay with OVCAR-4 ovarian, 2.2 µM; with UACC-257 melanoma it was 2.07 µM; in the assay on SN12C renal, 4.97 µM; in the assay on A498 renal, 5.1 µM. Also, the GI50 with EKVX NSCLC was 1.04 µM; with SF-268 CNS it was 0.126 µM; in the assay on MDA-MB-231 breast it was 5.36 µM; with T-47D breast, 0.653 µM. Further, the TGI in the assay with CCRF-CEM leukemia is 32.5 µM; with SK-OV-3 ovarian it was 7.05 µM; in the assay on OVCAR-4 ovarian, 22.1 µM; in the assay on UACC-257 melanoma, 10.6 µM; with SN12C renal, 15.2 µM; in the assay with A498 renal it was 11.6 µM. For the same molecule, the TGI with EKVX NSCLC stood at 6.25 µM; in the assay with SF-268 CNS, 7.01 µM; with MDA-MB-231 breast it was 16.8 µM; in the assay on T-47D breast it was 1.85 µM.

Turning to `S=C(Sc1ccc(Cl)cc1)Sc1ccc(Cl)cc1`, the GI50 in the assay on CCRF-CEM leukemia was 0.409 µM; with SK-OV-3 ovarian, 6.05 µM; with OVCAR-4 ovarian, 3.03 µM; with UACC-257 melanoma, 5.04 µM; in the assay on SN12C renal, 2.12 µM; in the assay on A498 renal it was 2.91 µM. For the same molecule, the GI50 was 3.03 µM in the assay with EKVX NSCLC, 2.1 µM in the assay on SF-268 CNS, 2.19 µM in the assay with MDA-MB-231 breast and 1.94 µM in the assay with T-47D breast. Further, the TGI in the assay with CCRF-CEM leukemia was 2.56 µM; in the assay with SK-OV-3 ovarian, 31.8 µM; in the assay with OVCAR-4 ovarian, 10.9 µM; with UACC-257 melanoma, 16.6 µM; in the assay with SN12C renal it was 5.34 µM; in the assay with A498 renal, 7.9 µM. Further, the TGI in the assay on EKVX NSCLC was 13.6 µM; in the assay with SF-268 CNS, 6.6 µM; in the assay with MDA-MB-231 breast it was 4.36 µM; in the assay on T-47D breast, 5.72 µM.

`Cc1cc(OC2OC(CO)C(O)C(O)C2O)ccc1O` (stereo not given): the TGI with CCRF-CEM leukemia, in the assay on SK-OV-3 ovarian, with OVCAR-4 ovarian, with UACC-257 melanoma, in the assay with SN12C renal and in the assay with A498 renal was greater than 100 µM each time. For the same molecule, the TGI in the assay on EKVX NSCLC, in the assay on SF-268 CNS, in the assay on MDA-MB-231 breast and with T-47D breast was greater than 100 µM each time.
